In patent publication US20050208496A1, “Methods of testing for bronchial asthma or chronic obstructive pulmonary disease” (Genox Research, Inc., priority 2002, published 2005):

System: respiratory epithelial cells
Conditions: lot 1, Day 7, AI method

## IL-13: human IL-13 (Peprotech, Inc.) added to the medium at 50 ng/mL to stimulate respiratory epithelial cells
  AI700705 (46658_at) expression fold change: 2.4 fold
  AI809925 (53010_at) expression fold change: 3.6 fold
  AI821796 (57694_at) expression fold change: 3 fold
  AI989346 (52327_s_at) expression fold change: 2.7 fold
  AKAP2 (48035_at) expression fold change: 4.4 fold
  AKAP10 (36632_at) expression, fold change upon IL-13 stimulation: 2 fold
  ALOX15 (34636_at) expression, fold change upon IL-13 stimulation: 72.3 fold
  ARHE (35803_at) expression fold change upon IL-13 stimulation: 2.3 fold
  ARL7 (57151_at) expression fold change: 3.1 fold
  AW019985 (48826_s_at) expression fold change: 6.9 fold
  AXL (38433_at) expression, fold change upon IL-13 stimulation: 2.2 fold
  BIG2 (34484_at) expression, fold change upon IL-13 stimulation: 2.2 fold
  BST2 (39061_at) expression, fold change upon IL-13 stimulation: 3 fold
  C1S (40496_at) expression, fold change upon IL-13 stimulation: 4.8 fold
  C21orf11 (58957_at) expression fold change: 2.1 fold
  CCND3 (1795_g_at) expression fold change upon IL-13 stimulation: 2.1 fold
  CDH6 (57421_at) expression fold change: 3.8 fold
  CDH26 (46916_at) expression fold change: 8.6 fold
  CH25H (32363_at) expression, fold change upon IL-13 stimulation: 15.1 fold
  CLDN5 (38995_at) expression, fold change upon IL-13 stimulation: 2.9 fold
  CTSC (133_at) expression, fold change upon IL-13 stimulation: 2.8 fold
  CXCL16 (44095_at) expression fold change: 4 fold
  DBCCR1 (40292_at) expression, fold change upon IL-13 stimulation: 3.1 fold
  DD96 (31610_at) expression, fold change upon IL-13 stimulation: 3.3 fold
  DDIT3 (39420_at) expression, fold change upon IL-13 stimulation: 5.2 fold
  DKFZP564O0823 (41402_at) expression, fold change upon IL-13 stimulation: 3.9 fold
  DKFZP566J091 (57197_at) expression fold change: 11.3 fold
  DNAJA1 (276_at) expression fold change upon IL-13 stimulation: 2.5 fold
  DPP4 (34823_at) expression fold change upon IL-13 stimulation: 3.2 fold
  DPYD (38220_at) expression fold change upon IL-13 stimulation: 2.5 fold
  EMILIN-2 (51628_at) expression fold change: 3.1 fold
  FADS3 (43394_s_at) expression fold change: 4.5 fold
  FETUB (32620_at) expression fold change: 8.4 fold
  FETUB (33101_g_at) expression fold change: 9 fold
  FLJ10261 (43366_at) expression fold change: 10.6 fold
  FLJ10261 (43963_at) expression fold change: 8.7 fold
  FLJ14281 (50209_at) expression fold change: 2.5 fold
  FLJ20420 (46233_at) expression fold change: 2.1 fold
  FLJ22332 (56959_at) expression fold change: 3.4 fold
  G1P3 (1358_s_at) expression, fold change upon IL-13 stimulation: 2.5 fold
  GADD45G (39154_at) expression fold change upon IL-13 stimulation: 4.3 fold
  H11 (56474_at) expression fold change: 2.3 fold
  HLA-F (37420_i_at) expression, fold change upon IL-13 stimulation: 3.3 fold
  HLA-F (37421_f_at) expression, fold change upon IL-13 stimulation: 2.4 fold
  HLA-F (49203_f_at) expression fold change: 3.4 fold
  HLALS (34427_g_at) expression, fold change upon IL-13 stimulation: 2 fold
  HS3ST1 (41556_s_at) expression fold change upon IL-13 stimulation: 3.8 fold
  HSD17B2 (38178_at) expression fold change upon IL-13 stimulation: 3.1 fold
  HSPA5 (47634_at) expression fold change: 2.7 fold
  HUMRTVLH3 (34702_f_at) expression, fold change upon IL-13 stimulation: 6.1 fold
  Human hbc647 mRNA sequence (34759_at) expression, fold change upon IL-13 stimulation: 2.5 fold
  ICAMt (32640_at) expression fold change upon IL-13 stimulation: 3.1 fold
  IFI27 (425_at) expression, fold change upon IL-13 stimulation: 2.1 fold
  IFI30 (39728_at) expression, fold change upon IL-13 stimulation: 2.1 fold
  IFIT4 (38584_at) expression, fold change upon IL-13 stimulation: 4.6 fold
  IL13RA2 (1016_s_at) expression fold change upon IL-13 stimulation: 4.8 fold
  IRLB (32961_at) expression fold change: 2.5 fold
  ISG15 (1107_s_at) expression, fold change upon IL-13 stimulation: 3 fold
  KIAA0469 (37230_at) expression, fold change upon IL-13 stimulation: 2 fold
  KIAA0537 (33787_at) expression, fold change upon IL-13 stimulation: 8.8 fold
  KIAA1199 (36070_at) expression, fold change upon IL-13 stimulation: 4.3 fold
  KRT16 (601_s_at) expression fold change: 3.6 fold
  LOC57118 (51085_at) expression fold change: 2.2 fold
  LOC64116 (40456_at) expression, fold change upon IL-13 stimulation: 2.8 fold
  LRPAP1 (36194_at) expression, fold change upon IL-13 stimulation: 2.2 fold
  MAT2A (32571_at) expression fold change upon IL-13 stimulation: 2.5 fold
  MDA5 (51920_at) expression fold change: 3.8 fold
  MED6 (35432_at) expression fold change: 2.7 fold
  MET (1609_g_at) expression, fold change upon IL-13 stimulation: 2.6 fold
  MET (1812_s_at) expression, fold change upon IL-13 stimulation: 5 fold
  MET (35684_at) expression, fold change upon IL-13 stimulation: 3.4 fold
  MFHAS1 (50388_at) expression fold change: 2.3 fold
  MICB (35937_at) expression, fold change upon IL-13 stimulation: 3.5 fold
  MKP-L (38272_at) expression, fold change upon IL-13 stimulation: 2.9 fold
  MMP7 (668_s_at) expression, fold change upon IL-13 stimulation: 2.8 fold
  MP1 (34839_at) expression, fold change upon IL-13 stimulation: 2 fold
  MXI (37014_at) expression fold change: 2.9 fold
  NCF2 (41038_at) expression fold change: 4 fold
  NFIL3 (37544_at) expression fold change: 2.5 fold
  NK4 (39119_s_at) expression fold change upon IL-13 stimulation: 6 fold
  NOS2A (1948_f_at) expression fold change upon IL-13 stimulation: 9.4 fold
  NOS2A (48918_at) expression fold change: 8.3 fold
  NTRK1 (36805_s_at) expression, fold change upon IL-13 stimulation: 8.7 fold
  OAF (39695_at) expression, fold change upon IL-13 stimulation: 4.3 fold
  OAS1 (38389_at) expression fold change upon IL-13 stimulation: 2.4 fold
  OSF-2 (1451_s_at) expression fold change upon IL-13 stimulation: 25.4 fold
  PAK2 (1560_g_at) expression, fold change upon IL-13 stimulation: 2.4 fold
  PITPNB (353_at) expression, fold change upon IL-13 stimulation: 2.8 fold
  PITPNB (35017_f_at) expression, fold change upon IL-13 stimulation: 2.3 fold
  PKD2 (38120_at) expression, fold change upon IL-13 stimulation: 2.7 fold
  PLS1 (39951_at) expression fold change: 5.4 fold
  PMCH (32005_at) expression fold change: 11 fold
  PSMB9 (38287_at) expression fold change upon IL-13 stimulation: 2.6 fold
  PVRL2 (50320_g_at) expression fold change: 2.2 fold
  RASGRP1 (33291_at) expression fold change: 2.8 fold
  RIG-1 (59215_at) expression fold change: 2.8 fold
  SECTM1 (41045_at) expression, fold change upon IL-13 stimulation: 4.4 fold
  SERPINB2 (37185_at) expression fold change: 5.3 fold
  SERPINB4 (1549_s_at) expression fold change: 7.8 fold
  SERPINB6 (34789_at) expression fold change: 2 fold
  SIAT1 (41352_at) expression fold change upon IL-13 stimulation: 8.7 fold
  SLC26A4, pendrin (36376_at) expression fold change: 20.1 fold
  SPHK1 (51923_at) expression fold change: 2.1 fold
  SSI-1 (41592_at) expression, fold change upon IL-13 stimulation: 6.1 fold
  STAT1 (32859_at) expression fold change: 2.1 fold
  TGFB2 (1262_s_at) expression fold change upon IL-13 stimulation: 3.2 fold
